Test system: hCMECs/D3
Assay: In vitro BBB permeability assay
Type: in vitro ADME, human
Description: Human cerebral microvascular endothelial cells (hCMECs/D3, SCC066; Sigma-Aldrich) were used to assess the permeability of CRF1R antagonists across the BBB. hCMECs were seeded on Falcon^TM cell culture inserts (08-770, Fisher Scientific) with 0.4 μm pore sizes precoated with collagen type I from rat tails (354236, Corning) at a density of 50,000 cells/mL in endothelial cell growth medium-2 (EGM-2, CC-3162; Lonza). The medium was changed with EGM-2 every three to four days for proliferation and with EGM-2 containing 2.5% human serum (SLBX6020, Sigma-Aldrich) for differentiation. Cell culture inserts were transferred into 24-well plates containing 700 μL of EGM-2 in each well (basolateral compartment) for the permeability assay. The medium in the inserts (apical compartment) was then replaced with 300 μL EGM-2 containing 10 μM BMK-C203 or BMK-C205. Apical and basolateral compartments were collected after a 12-h incubation at 37 °C, and drug concentrations were measured using HPLC. For sample preparation, 50 μL of the sample was mixed with 10 μL of an internal standard solution (d4-cortisol). Subsequently, 50 μL of acetonitrile was added, and the mixture was centrifuged at 16,000×g for 10 min for protein precipitation. The supernatants were used for LC‒MS analysis with a triple quadrupole mass spectrometer coupled with HPLC using a C18 reversed-phase column. The concentration of the antagonists was determined using a calibration curve. The permeability coefficient (P) was calculated according to Pardridge et al.[34]. The permeability-surface area product (PS, in cm^3/s) was divided by the filter surface area A (in cm^2) using Eq. (1) as follows:1 Pcm/s=Vd×△Ma/A×[…]×△t where Vd is the volume in the donor compartment in cm^3, ΔMa is the total amount of the compound in the […] compartment after t seconds, Md is the donor amount, Δt is the incubation time, and A is the filter area in cm^2.

`CCCCN(CC1CC1)c1nc(C)nc2c(-c3c(OC)cc(Br)cc3OC)c(C)nn12` [BMK-C205] was tested, and the “permeability coefficient relative to BMK-C203” value was “seven times higher”.
